In patent US20130204033A1, “ANTIPROLIFERATIVE COMPOUNDS, CONJUGATES THEREOF, METHODS THEREFOR, AND USES THEREOF” (Medarex, Inc., priority 2009, published 2013):
Like-named read-outs stand apart in the source and are kept apart here.

Columns and labels:
Type in all cases: cell-based, human
OVCAR3 [1] = experiment: ATP luminescence proliferation assay, OVCAR3
How it was run: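 Human tumor lines, cultured per supplier instructions, are plated at 1.0×10^3 cells/well and allowed 3 h before 1:3 serially diluted test agents are added. Viability is read as ATP luminescence after 48, 72 or 96 h.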

BT474 = experiment: ATP luminescence proliferation assay, BT474
Description: (§1) This example generally describes the procedures used to assay the antiproliferative activity of compounds of this invention or their conjugates. Human tumor cell lines were obtained from the American Type Culture Collection (ATCC), P.O. Box 1549, Manassas, Va. 20108, USA, and cultured according to instruction from the ATCC. Cells were seeded at 1.0×10^3 or 1.0×10^4 cells/well in 96-well plates for 3 h for ATP assays or ^3H thymidine assays, respectively. 1:3 serial dilutions of free (unconjugated) compounds or their conjugates were added to the wells. Plates were allowed to incubate for 24 to 72 h. The ^3H thymidine plates were pulsed with 1.0 μCi of ^3H-thymidine per well for the last 24 hours of the total incubation period, harvested, and read on a Top Count Scintillation Counter (Packard Instruments, Meriden, Conn.). ATP levels in the ATP plates were measured using the […]-GLO® Luminescent Cell Viability kit following the manufacturer's manual and read on a GLOMAX® 20/20 luminometer (both from Promega, Madison, Wis., USA). The EC50 values—the concentration at which an agent inhibits or reduces cell proliferation by 50% —were determined using PRISM™ software, version 4.0 (GraphPad Software, La Jolla, Calif., USA).
(§2) Using the ^3H thymidine or the ATP luminescence assay, or both, the activities of compounds of this invention were assayed against the following cancer cell lines: HCT-15 (colorectal cancer, multi-drug resistant (MDR)); Hep3B (liver cancer); LNCaP (prostate cancer, androgen receptor positive (AR^+)); MDA-MB-231 (breast cancer, estrogen receptor, progesterone receptor, and Her2 negative (triple negative)); A2058 (melanoma); U-87 MG (glioblastoma); NCI-H460 (NSCLC); A549 (NSCLC); HPAC (pancreatic cancer, primary); PC3 (prostate cancer, AR); BT474 (breast cancer, Her2 highly positive (Her2hi)); SKOV3 (ovarian cancer, Her2hi); 786-O (renal cancer); UO-31 (renal cancer, MDR); NCI-H740 (SCLC); DMS53 (SCLC); SK-BR3 (breast cancer, Her2hi); ZR-75 (breast cancer, estrogen receptor positive); OVCAR3 (ovarian cancer); HL-60 (APL); OVCAR8/Adr (ovarian cancer, MDR); CEM-Cl (ALL); Nomo-1 (AML); RPMI-8226 (MM)); Raji (lymphoma); SW-480 (colorectal cancer, metastatic); SW-620 (colorectal cancer); and H226 (lung cancer). (Not all compounds were assayed against all cell lines.)
(§3) Table 3 provides the data for the ATP luminescence proliferation assays, with an incubation period of 48, 72, or 96 h, as noted.

DMS53 [2] = experiment: ATP luminescence proliferation assay, DMS53
Description: as §1, §2, §3

U-87 MG = experiment: 3H thymidine proliferation assay, U-87 MG
Description: as §1, §2
(§4) Table 2 provides the data for proliferation assays using the ^3H thymidine method, with an incubation period of 72 h.

NCI-H460 = experiment: ATP luminescence proliferation assay, NCI-H460
Description: as §1, §2, §3

SK-BR3 = experiment: 3H thymidine proliferation assay, SK-BR3; conditions: 3H thymidine method, 72 h incubation
Description: as §1, §2, §4

MDA-MB-231 = experiment: ATP luminescence proliferation assay, MDA-MB-231
Description: as §1, §2, §3

Hep3B = experiment: 3H thymidine proliferation assay, Hep3B
Description: as §1, §2, §4

SW-620 = experiment: ATP luminescence proliferation assay, SW-620
Description: as §1, §2, §3

OVCAR3 [3] = experiment: 3H thymidine proliferation assay, OVCAR3
Description: as §1, §2, §4

ZR-75 = experiment: ATP luminescence proliferation assay, ZR-75
Description: as §1, §2, §3

786-O = experiment: ATP luminescence proliferation assay, 786-O
How it was run: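 Cells seeded at 1.0×10^3 cells/well for 3 h, then exposed to 1:3 serial dilutions of free compounds or conjugates for 48, 72 or 96 h, as noted. ATP measured by luminescent cell viability kit; EC50 taken as concentration reducing proliferation by 50%.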

A549 = experiment: 3H thymidine proliferation assay, A549
Description: as §1, §2, §4

SKOV3 = experiment: 3H thymidine proliferation assay, SKOV3
Description: as §1, §2, §4

A2058 = experiment: ATP luminescence proliferation assay, A2058
Description: as §1, §2, §3

UO-31 = experiment: 3H thymidine proliferation assay, UO-31
Description: as §1, §2, §4

DMS53 [4] = experiment: 3H thymidine proliferation assay, DMS53
Description: as §1, §2, §4

HL-60 = experiment: 3H thymidine proliferation assay, HL-60
Description: as §1, §2, §4

[5] = ATP luminescence, OVCAR3, 48 h incubation, read-out: EC50 OVCAR3 (48 h)
[6] = ATP luminescence, BT474, 48 h incubation, read-out: EC50 BT474 (48 h)
[7] = ATP luminescence, DMS53, 48 h incubation, read-out: EC50 DMS53 (48 h)
[8] = 3H thymidine method, 72 h incubation, read-out: EC50, U-87 MG
[9] = ATP luminescence, NCI-H460, 48 h incubation, read-out: EC50 NCI-H460 (48 h)
[10] = ATP luminescence, MDA-MB-231, 48 h incubation, read-out: EC50 MDA-MB-231 (48 h)
[11] = 3H thymidine method, 72 h incubation, read-out: EC50, Hep3B
[12] = ATP luminescence, SW-620, 96 h incubation, read-out: EC50 SW-620 (96 h)
[13] = 3H thymidine method, 72 h incubation, read-out: EC50, OVCAR3
[14] = ATP luminescence, ZR-75, 48 h incubation, read-out: EC50 ZR-75 (48 h)
[15] = ATP luminescence, 786-O, 72 h incubation, read-out: EC50 786-O (72 h)
[16] = 3H thymidine method, 72 h incubation, read-out: EC50, A549
[17] = 3H thymidine method, 72 h incubation, read-out: EC50, SKOV3
[18] = ATP luminescence, A2058, 48 h incubation, read-out: EC50 A2058 (48 h)
[19] = 3H thymidine method, 72 h incubation, read-out: EC50, UO-31
[20] = 3H thymidine method, 72 h incubation, read-out: EC50, DMS53
[21] = 3H thymidine method, 72 h incubation, read-out: EC50, HL-60

Structure (SMILES)	EC50 (OVCAR3 [1]; [5]) [nM]	EC50 (BT474; [6]) [nM]	EC50 (DMS53 [2]; [7]) [nM]	EC50 (U-87 MG; [8]) [nM]	EC50 (NCI-H460; [9]) [nM]	EC50 (SK-BR3) [nM]	EC50 (MDA-MB-231; [10]) [nM]	EC50 (Hep3B; [11]) [nM]	EC50 (SW-620; [12]) [nM]	EC50 (OVCAR3 [3]; [13]) [nM]	EC50 (ZR-75; [14]) [nM]	EC50 (786-O; [15]) [nM]	EC50 (A549; [16]) [nM]	EC50 (SKOV3; [17]) [nM]	EC50 (A2058; [18]) [nM]	EC50 (UO-31; [19]) [nM]	EC50 (DMS53 [4]; [20]) [nM]	EC50 (HL-60; [21]) [nM]	further results
CC[C@H](C)[C@H](NC(=O)[C@H]1CCCCN1C)C(=O)N(C)[C@H](C[C@@H](OC)c1nc(C(=O)N[C@@H](Cc2ccccc2)C(=O)OC)cs1)C(C)C [Compound 16]	> 100	19	50	> 100	69	> 100	28	> 100	29	> 100	11	36	> 100	44	30	> 100	> 100	8.9	–
CC[C@H](C)[C@H](NC(=O)[C@H]1CCCCN1C)C(=O)N(C)[C@H](C[C@@H](OC(C)=O)c1nc(C(=O)N[C@@H](Cc2ccc(N)cc2)CC(C)C(=O)O)cs1)C(C)C (stereo partly drawn) [Compound 36]	–	–	–	–	–	–	–	–	–	–	–	–	–	–	–	–	–	–	EC50 (OVCAR3 [1]; Homo sapiens, OVCAR-3, 48 h, read-out: EC50 OVCAR3 (48 h), ATP luminescence, OVCAR3, 48 h incubation): > 300 nM; EC50 (BT474; Homo sapiens, BT-474, 48 h, read-out: EC50 BT474 (48 h), ATP luminescence, BT474, 48 h incubation): ~120 nM; EC50 (DMS53 [2]; Homo sapiens, DMS-53, 48 h, read-out: EC50 DMS53 (48 h), ATP luminescence, DMS53, 48 h incubation): ~300 nM; EC50 (U-87 MG; Homo sapiens, U-87 MG, read-out: EC50, U-87 MG, 3H thymidine method, 72 h incubation): 15 nM; EC50 (NCI-H460; Homo sapiens, NCI-H460, 72 h, read-out: EC50 NCI-H460 (72 h), ATP luminescence, NCI-H460, 72 h incubation): 16 nM; EC50 (SK-BR3; Homo sapiens, SK-BR-3): > 100 nM; EC50 (MDA-MB-231; Homo sapiens, MDA-MB-231, 72 h, read-out: EC50 MDA-MB-231 (72 h), ATP luminescence, MDA-MB-231, 72 h incubation): 9.6 nM; EC50 (Hep3B; Homo sapiens, Hep3B, read-out: EC50, Hep3B, 3H thymidine method, 72 h incubation): 39 nM; EC50 (SW-620; Homo sapiens, SW-620, 96 h, read-out: EC50 SW-620 (96 h), ATP luminescence, SW-620, 96 h incubation): 45 nM; EC50 (OVCAR3 [3]; Homo sapiens, OVCAR-3, read-out: EC50, OVCAR3, 3H thymidine method, 72 h incubation): > 100 nM; EC50 (ZR-75; Homo sapiens, ZR75, 48 h, read-out: EC50 ZR-75 (48 h), ATP luminescence, ZR-75, 48 h incubation): > 300 nM; EC50 (786-O; Homo sapiens, 786-0, 72 h, read-out: EC50 786-O (72 h), ATP luminescence, 786-O, 72 h incubation): 183 nM; EC50 (A549; Homo sapiens, A549, read-out: EC50, A549, 3H thymidine method, 72 h incubation): 44 nM; EC50 (SKOV3; Homo sapiens, SK-OV-3, read-out: EC50, SKOV3, 3H thymidine method, 72 h incubation): 32 nM; EC50 (A2058; Homo sapiens, A2058, 72 h, read-out: EC50 A2058 (72 h), ATP luminescence, A2058, 72 h incubation): 43 nM; EC50 (UO-31; Homo sapiens, UO-31, read-out: EC50, UO-31, 3H thymidine method, 72 h incubation): > 100 nM; EC50 (DMS53 [4]; Homo sapiens, DMS-53, read-out: EC50, DMS53, 3H thymidine method, 72 h incubation): > 100 nM; EC50 (HL-60; Homo sapiens, HL-60, read-out: EC50, HL-60, 3H thymidine method, 72 h incubation): 107 nM
CC[C@H](C)[C@H](NC(=O)[C@H]1CCCCN1C)C(=O)N(COC)[C@H](C[C@@H](OC)c1nc(C(=O)N[C@@H](Cc2ccccc2)C(=O)OC)cs1)C(C)C [Compound 29c]	–	492	–	0.51	–	72	52	3	8.4	3.6	136	34	6.5	1.9	32	1	76	1.8	EC50 (OVCAR3 [1]; ATP luminescence, OVCAR3, 72 h incubation, read-out: EC50 OVCAR3 (72 h)): 99 nM; EC50 (DMS53 [2]; ATP luminescence, DMS53, 72 h incubation, read-out: EC50 DMS53 (72 h)): 17 nM; EC50 (NCI-H460; ATP luminescence, NCI-H460, 72 h incubation, read-out: EC50 NCI-H460 (72 h)): 6 nM
CC[C@H](C)[C@H](NC(=O)[C@H]1CCCCN1C)C(=O)N(C)[C@H](C[C@@H](OC(C)=O)c1nc(C(=O)N[C@@H](Cc2ccc(N)cc2)C(=O)O)cs1)C(C)C [Compound 56]	> 100	> 100	> 100	> 100	> 100	> 100	> 100	> 100	28	> 100	> 100	> 100	> 100	> 100	> 100	> 100	> 100	> 100	–
